Assay results from patent US12466856B2, “Echinocandin analogues and preparation method therefor” (SHANGHAI SENHUI MEDICINE CO., LTD., priority 2019, dated 2025).
Like-named read-outs stand apart in the source and are kept apart here. Starred links: 1 amine or outer side, 2 acyl side, 3 side chain; linkers in the order of their positions; H or OH if unused. Positions of bridges follow the written chain, without caps; N, C: chain ends. Non-standard residues stand in square brackets, D forms with d. Residues, ends and D or L forms follow the SMILES beside them. *: point of attachment. Orn(4R-OH,5R-OCH2CH2NMe3+) = C[N+](C)(C)CCO[C@@H](N[*:3])[C@H](O)C[C@H](N[*:1])C(=O)[*:2]; hTyr(3S-OH,4S-OH) = N[C@H](C(=O)O)[C@H](O)[C@@H](O)c1ccc(O)cc1; X2 = CCCCCCc1ccc(-c2ccc(-c3ccc(C(=O)*)cc3)cc2)cc1; X3 = CCCCCNc1ccc(-c2ccc(-c3ccc(C(=O)*)cc3)cc2)cc1; Pro(3S-OH,4S-Me) = C[C@H]1CN[C@H](C(=O)O)[C@H]1O; Hyp = O=C(O)[C@@H]1C[C@@H](O)CN1

Columns and labels:
Format in all cases: cell-based
[1] = system: Candida albicans ATCC 90028; assay: MIC assay (CLSI M27-A3), Candida albicans ATCC 90028; conditions: Candida albicans
Method: (§1) After a test compound was serially diluted, an MIC (minimum inhibitory concentration) assay was performed on the standard Candida strain and an MEC (minimum effective concentration) assay on the standard Aspergillus strain. The MIC assay was performed according to the guidelines of the Clinical and Laboratory Standards Institute (CLSI M27-A3) and the MEC assay according to the guidelines of the Clinical and Laboratory Standards Institute (CLSI M38-A2).
(§2) The frozen strain was passaged at least twice, and a single colony was picked and resuspended in normal saline or sterile water in a tube. The suspension was vortexed and adjusted to 0.5 McF (1×10^6 to 5×10^6 CFU/mL) using a spectrophotometer at wavelength 530 nm. The suspension was 50-fold diluted with normal saline and then 20-fold diluted with 1×RPMI 1640 broth (1×10^3 to 5×10^3 CFU/mL). 10 μL of the suspension was applied to an SDA plate for colony counting, with a range from about 10 to 50 single colonies.
At this time, the bacterium concentration in each well should be 0.5×10^3 to 2.5×10^3 CFU/mL. […]
(§3) Yeast-type fungi: A disposable sealing film was applied to the 96-well plate, and the mixture was well mixed by shaking. Observation was performed through a plate reader with the naked eye. Comparisons were made to the growth control, and the minimum compound concentration corresponding to ≥50% growth inhibition was defined as MIC. Pictures were taken and saved using an automatic plate reader.

[2] = system: Candida albicans ATCC 44858; assay: MIC assay (CLSI M27-A3), Candida albicans ATCC 44858; conditions: Candida albicans
Method: as §1, §2
(§4) At this time, the bacterium concentration in each well should be 0.5×10^3 to 2.5×10^3 CFU/mL.
(§5) For echinocandin drugs, Aspergillus was incubated at 28° C. for 21-26 h, and then the MEC results were read.
as §3

[3] = system: Candida glabrata ATCC 36583; assay: MIC assay (CLSI M27-A3), Candida glabrata ATCC 36583; conditions: Nakaseomyces glabratus
Method: as §1, §2, §4, §5, §3

[4] = system: Candida albicans (azole drug-resistant strain) R357; assay: MIC assay (CLSI M27-A3), Candida albicans azole drug-resistant strain R357; conditions: Candida albicans, read-out: MIC, Candida albicans (azole drug-resistant strain) R357
Method: as §1, §2, §4, §5, §3

[5] = system: Candida albicans (azole drug-resistant strain) R358; assay: MIC assay (CLSI M27-A3), Candida albicans azole drug-resistant strain R358; conditions: Candida albicans, read-out: MIC, Candida albicans (azole drug-resistant strain) R358
Method: as §1, §2, §4, §5, §3

[6] = system: Candida tropicalis (amphotericin-resistant strain) ATCC 200956; assay: microbe, parasite or virus in culture; conditions: Candida tropicalis, ATCC200956, read-out: MIC, Candida tropicalis (amphotericin-resistant strain) ATCC 200956
Method: as §1, §2, §4, §5, §3

[7] = ATCC90028, 24 h, read-out: MIC, Candida albicans ATCC 90028
[8] = ATCC90028, read-out: MIC, Candida albicans + 50% human serum ATCC 90028
[9] = ATCC44858, read-out: MIC, Candida albicans ATCC 44858
[10] = ATCC36583, read-out: MIC, Candida glabrata ATCC 36583
[11] = ATCC90028, second batch, 24 h, 35° C., read-out: MIC, Candida albicans ATCC 90028
[12] = ATCC90028, second batch, + 50% human serum, read-out: MIC, Candida albicans + 50% human serum ATCC 90028
[13] = ATCC44858, second batch, read-out: MIC, Candida albicans ATCC 44858
[14] = ATCC36583, second batch, read-out: MIC, Candida glabrata ATCC 36583

SMILES	MIC [1, 7] [µg/mL]	MIC [1, 8] [µg/mL]	MIC [2, 9] [µg/mL]	MIC [3, 10] [µg/mL]	MIC [4] [µg/mL]	MIC [5] [µg/mL]	MIC [6] [µg/mL]	MIC [1, 11] [µg/mL]	MIC [1, 12] [µg/mL]	MIC [2, 13] [µg/mL]	MIC [3, 14] [µg/mL]	MIC ([4]; second batch) [µg/mL]	MIC ([5]; second batch) [µg/mL]
CCCCCCc1ccc(-c2ccc(-c3ccc(C(=O)N[C@H]4C[C@@H](O)[C@@H](OCC[N+](C)(C)C)NC(=O)[C@@H]5[C@@H](O)[C@@H](C)CN5C(=O)[C@H]([C@@H](C)O)NC(=O)[C@H]([C@H](O)[C@@H](O)c5ccc(O)cc5)NC(=O)[C@@H]5C[C@@H](O)CN5C(=O)[C@H]([C@@H](C)O)NC4=O)cc3)cc2)cc1 [Example 16] (X2-[Orn(4R-OH,5R-OCH2CH2NMe3+)]T[Hyp][hTyr(3S-OH,4S-OH)]T[Pro(3S-OH,4S-Me)]; lactam 1-C)	0.25	0.5	0.25	0.25	0.25	0.25	0.25	–	–	–	–	–	–
CCCCCNc1ccc(-c2ccc(-c3ccc(C(=O)N[C@H]4C[C@@H](O)[C@@H](OCC[N+](C)(C)C)NC(=O)[C@@H]5[C@@H](O)[C@@H](C)CN5C(=O)[C@H]([C@@H](C)O)NC(=O)[C@H]([C@H](O)[C@@H](O)c5ccc(O)cc5)NC(=O)[C@@H]5C[C@@H](O)CN5C(=O)[C@H]([C@@H](C)O)NC4=O)cc3)cc2)cc1 [Example 17] (X3-[Orn(4R-OH,5R-OCH2CH2NMe3+)]T[Hyp][hTyr(3S-OH,4S-OH)]T[Pro(3S-OH,4S-Me)]; lactam 1-C)	0.25	0.25	0.25	0.5	0.5	0.25	0.25	–	–	–	–	–	–
CCCCCOc1ccc(-c2ccc(-c3ccc(C(=O)N[C@H]4C[C@@H](O)[C@@H](OC[C@H](C)[N+](C)(C)C)NC(=O)[C@@H]5[C@@H](O)[C@@H](C)CN5C(=O)[C@H]([C@@H](C)O)NC(=O)[C@H]([C@H](O)[C@@H](O)c5ccc(O)cc5)NC(=O)[C@@H]5C[C@@H](O)CN5C(=O)[C@H]([C@@H](C)O)NC4=O)cc3)cc2)cc1 [Example 22]	–	–	–	–	–	–	0.25	0.25	0.25	0.25	0.5	0.5	0.25
CCCCCOc1ccc(-c2ccc(-c3ccc(C(=O)N[C@H]4C[C@@H](O)[C@@H](OC[C@@H](C)[N+](C)(C)C)NC(=O)[C@@H]5[C@@H](O)[C@@H](C)CN5C(=O)[C@H]([C@@H](C)O)NC(=O)[C@H]([C@H](O)[C@@H](O)c5ccc(O)cc5)NC(=O)[C@@H]5C[C@@H](O)CN5C(=O)[C@H]([C@@H](C)O)NC4=O)cc3)cc2)cc1 [Example 23]	–	–	–	–	–	–	0.25	0.25	0.25	0.25	0.25	0.25	0.125
CCCCCOc1ccc(-c2ccc(-c3ccc(C(=O)N[C@H]4C[C@@H](O)[C@@H](O[C@@H](C)C[N+](C)(C)C)NC(=O)[C@@H]5[C@@H](O)[C@@H](C)CN5C(=O)[C@H]([C@@H](C)O)NC(=O)[C@H]([C@H](O)[C@@H](O)c5ccc(O)cc5)NC(=O)[C@@H]5C[C@@H](O)CN5C(=O)[C@H]([C@@H](C)O)NC4=O)cc3)cc2)cc1 [Example 24]	–	–	0.125	–	–	–	0.125	0.25	0.25	–	0.25	0.5	0.0625
CCCCCOc1ccc(-c2ccc(-c3ccc(C(=O)N[C@H]4C[C@@H](O)[C@@H](O[C@@H]5CC[N+](C)(C)C5)NC(=O)[C@@H]5[C@@H](O)[C@@H](C)CN5C(=O)[C@H]([C@@H](C)O)NC(=O)[C@H]([C@H](O)[C@@H](O)c5ccc(O)cc5)NC(=O)[C@@H]5C[C@@H](O)CN5C(=O)[C@H]([C@@H](C)O)NC4=O)cc3)cc2)cc1 [Example 25]	–	–	–	–	–	–	0.25	0.25	0.125	0.125	0.25	0.25	0.25
CCCCCOc1ccc(-c2ccc(-c3ccc(C(=O)N[C@H]4C[C@@H](O)[C@@H](O[C@H]5CC[N+](C)(C)C5)NC(=O)[C@@H]5[C@@H](O)[C@@H](C)CN5C(=O)[C@H]([C@@H](C)O)NC(=O)[C@H]([C@H](O)[C@@H](O)c5ccc(O)cc5)NC(=O)[C@@H]5C[C@@H](O)CN5C(=O)[C@H]([C@@H](C)O)NC4=O)cc3)cc2)cc1 [Example 26]	–	–	–	–	–	–	0.25	0.25	0.25	0.25	0.25	0.5	0.25
